Measurements reported in patent US11897851B2, “Heterocyclic GLP-1 agonists” (Gasherbrum Bio, Inc., priority 2021, dated 2024).

molecular target: T1, GLP-1 Receptor (Homo sapiens, UniProt P43220); assay: GLP-1R agonist cAMP stimulation assay (HEK293/GLP1R/CRE-LUC cells, Cisbio cAMP dynamic 2 kit); type: cell-based; conditions: HEK293/CRE-Luc cell line stably expressing the GLP-1 Receptor; 1000 cells/well; 30 min at 37° C.; 0.5 mM IBMX, 0.1% BSA; read-out: GLP1R cAMP Stimulation DR: EC50;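 note: compounds tested in half-log serial dilution, cAMP detected with cAMP-d2 and anti-cAMP cryptate antibody reagents after 1 h at room temperature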
T1 construct: host or cells: HEK293/GLP1R/CRE-LUC (HEK293/CRE-Luc stably expressing the GLP-1 receptor)
T1 sequence (P43220 24-463, species assumed): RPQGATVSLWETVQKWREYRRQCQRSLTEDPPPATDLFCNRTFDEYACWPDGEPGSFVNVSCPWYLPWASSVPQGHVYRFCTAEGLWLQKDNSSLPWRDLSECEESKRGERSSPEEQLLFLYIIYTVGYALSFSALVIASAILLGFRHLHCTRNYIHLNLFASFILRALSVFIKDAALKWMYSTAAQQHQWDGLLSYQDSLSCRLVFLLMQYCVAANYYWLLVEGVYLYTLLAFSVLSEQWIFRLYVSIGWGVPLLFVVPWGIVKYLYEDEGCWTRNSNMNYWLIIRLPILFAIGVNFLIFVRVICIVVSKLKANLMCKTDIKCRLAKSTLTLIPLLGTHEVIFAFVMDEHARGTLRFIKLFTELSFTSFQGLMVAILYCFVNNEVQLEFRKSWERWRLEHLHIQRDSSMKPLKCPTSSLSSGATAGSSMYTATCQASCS

Row | SMILES | EC50
1 | CCn1cncc1Cn1c(/C=C(\C)C(=O)O)cnc1CN1CCC(c2cccc(OCc3ccc(Cl)cc3F)n2)CC1 [Compound 219, (E)-3-(2-((4-(6-((4-chloro-2-fluorobenzyl)oxy)pyridin-2-yl)piperidin-1-yl)methyl)-1-((1-ethyl-1H-imidazol-5-yl)methyl)-1H-imidazol-5-yl)-2-methylacrylic acid] | 0.0069 nM
2 | CCn1cncc1Cn1c(/C=C(\C)C(=O)O)cnc1CN1CCC(c2cccc(OCc3ccc(Cl)cn3)n2)CC1 [Compound 220, (E)-3-(2-((4-(6-((5-chloropyridin-2-yl)methoxy)pyridin-2-yl)piperidin-1-yl)methyl)-1-((1-ethyl-1H-imidazol-5-yl)methyl)-1H-imidazol-5-yl)-2-methylacrylic acid] | 0.11 nM
3 | COCCn1c(/C(F)=C/C(=O)O)cnc1CN1CCC(c2cccc(OCc3ccc(Cl)cc3F)n2)CC1 [Compound 221, (Z)-3-(2-((4-(6-((4-chloro-2-fluorobenzyl)oxy)pyridin-2-yl)piperidin-1-yl)methyl)-1-(2-methoxyethyl)-1H-imidazol-5-yl)-3-fluoroacrylic acid] | 0.56 nM
4 | O=C(O)/C=C/c1cn(Cc2ncco2)c(CN2CCC(c3cccc4c3OC[C@@H](c3ccc(Cl)cc3)O4)CC2)n1 [Compound 222a, (R,E)-3-(2-((4-(2-(4-chlorophenyl)-2,3-dihydrobenzo[b][1,4]dioxin-5-yl)piperidin-1-yl)methyl)-1-(oxazol-2-ylmethyl)-1H-imidazol-4-yl)acrylic acid] | 6.9 nM
5 | COCCn1c(/C=C/C(=O)O)nnc1CN1CCC(c2cccc(OCc3ccc(Cl)cc3F)n2)CC1 [Compound 223, (E)-3-(5-((4-(6-((4-chloro-2-fluorobenzyl)oxy)pyridin-2-yl)piperidin-1-yl)methyl)-4-(2-methoxyethyl)-4H-1,2,4-triazol-3-yl)acrylic acid] | 0.47 nM
6 | COCCn1c(/C=C(\C)C(=O)O)nnc1CN1CCC(c2cccc(OCc3ccc(Cl)cc3F)n2)CC1 [Compound 224, (E)-3-(5-((4-(6-((4-chloro-2-fluorobenzyl)oxy)pyridin-2-yl)piperidin-1-yl)methyl)-4-(2-methoxyethyl)-4H-1,2,4-triazol-3-yl)-2-methylacrylic acid] | 2.1 nM
7 | O=C(O)/C=C/c1nnc(CN2CCC(c3cccc(OCc4ccc(Cl)cc4F)n3)CC2)n1C[C@@H]1CCO1 [Compound 225a, (S,E)-3-(5-((4-(6-((4-chloro-2-fluorobenzyl)oxy)pyridin-2-yl)piperidin-1-yl)methyl)-4-(oxetan-2-ylmethyl)-4H-1,2,4-triazol-3-yl)acrylic acid] | 0.26 nM
8 | C/C(=C\c1nnc(CN2CCC(c3cccc(OCc4ccc(Cl)cc4F)n3)CC2)n1C[C@@H]1CCO1)C(=O)O [Compound 226a, (S,E)-3-(5-((4-(6-((4-chloro-2-fluorobenzyl)oxy)pyridin-2-yl)piperidin-1-yl)methyl)-4-(oxetan-2-ylmethyl)-4H-1,2,4-triazol-3-yl)-2-methylacrylic acid] | 1.2 nM
9 | C/C(=C\c1nnc(CN2CCC(c3cccc(OCc4ccc(Cl)cc4F)n3)CC2)n1CCS(C)(=O)=O)C(=O)O [Compound 227, (E)-3-(5-((4-(6-((4-chloro-2-fluorobenzyl)oxy)pyridin-2-yl)piperidin-1-yl)methyl)-4-(2-(methylsulfonyl)ethyl)-4H-1,2,4-triazol-3-yl)-2-methylacrylic acid] | 1.7 nM
10 | CCn1cncc1Cn1c(/C=C/C(=O)O)nnc1CN1CCC(c2cccc(OCc3ccc(Cl)cc3F)n2)CC1 [Compound 228, (E)-3-(5-((4-(6-((4-chloro-2-fluorobenzyl)oxy)pyridin-2-yl)piperidin-1-yl)methyl)-4-((1-ethyl-1H-imidazol-5-yl)methyl)-4H-1,2,4-triazol-3-yl)acrylic acid] | 0.0048 nM
11 | O=C(O)/C=C/c1nnc(CN2CCC(c3cccc(OCc4ccc(Cl)cc4F)n3)CC2)n1CC1CCC1 [Compound 229, (E)-3-(5-((4-(6-((4-chloro-2-fluorobenzyl)oxy)pyridin-2-yl)piperidin-1-yl)methyl)-4-(cyclobutylmethyl)-4H-1,2,4-triazol-3-yl)acrylic acid] | 2.7 nM
12 | O=C(O)/C=C/c1nnc(CN2CCC(c3cccc(OCc4ccc(Cl)cc4F)n3)CC2)n1CC(F)F [Compound 230, (E)-3-(5-((4-(6-((4-chloro-2-fluorobenzyl)oxy)pyridin-2-yl)piperidin-1-yl)methyl)-4-(2,2-difluoroethyl)-4H-1,2,4-triazol-3-yl)acrylic acid] | 41 nM
13 | O=C(O)/C=C/c1nnc(CN2CCC(c3cccc(OCc4ccc(Cl)cc4F)n3)CC2)n1CC1CCCO1 (centres unmarked) [Compound 231, (E)-3-(5-((4-(6-((4-chloro-2-fluorobenzyl)oxy)pyridin-2-yl)piperidin-1-yl)methyl)-4-((tetrahydrofuran-2-yl)methyl)-4H-1,2,4-triazol-3-yl)acrylic acid] | 0.88 nM
14 | O=C(O)/C=C/c1nnc(CN2CCC(c3cccc(OCc4ccc(Cl)cc4F)n3)CC2)n1CC1CCOC1 (centres unmarked) [Compound 232, (E)-3-(5-((4-(6-((4-chloro-2-fluorobenzyl)oxy)pyridin-2-yl)piperidin-1-yl)methyl)-4-((tetrahydrofuran-3-yl)methyl)-4H-1,2,4-triazol-3-yl)acrylic acid] | 1.2 nM
15 | O=C(O)/C=C/c1nnc(CN2CCC(c3cccc(OCc4ccc(Cl)cc4F)n3)CC2)n1CC1CCOCC1 [Compound 233, (E)-3-[5-[[4-[6-[(4-chloro-2-fluoro-phenyl)methoxy]-2-pyridyl]-1-piperidyl]methyl]-4-(tetrahydropyran-4-ylmethyl)-1,2,4-triazol-3-yl]prop-2-enoic acid] | 26 nM
16 | CCn1cncc1Cn1c(/C=C/C(=O)O)nnc1CN1CCC(c2cccc3c2OC[C@@H](c2ccc(Cl)cc2)O3)CC1 [Compound 234a, (R,E)-3-(5-((4-(2-(4-chlorophenyl)-2,3-dihydrobenzo[b][1,4]dioxin-5-yl)piperidin-1-yl)methyl)-4-((1-ethyl-1H-imidazol-5-yl)methyl)-4H-1,2,4-triazol-3-yl)acrylic acid] | 0.026 nM
17 | COCCn1c(CN2CCC(c3cccc(OCc4ccc(Cl)cc4F)n3)CC2)nnc1C(C)=CC(=O)O [Compound 235, 3-(5-((4-(6-((4-chloro-2-fluorobenzyl)oxy)pyridin-2-yl)piperidin-1-yl)methyl)-4-(2-methoxyethyl)-4H-1,2,4-triazol-3-yl)but-2-enoic acid] | 10 nM
18 | CC(=CC(=O)O)c1nnc(CN2CCC(c3cccc(OCc4ccc(Cl)cc4F)n3)CC2)n1CC1CCC1 [Compound 236, 3-(5-((4-(6-((4-chloro-2-fluorobenzyl)oxy)pyridin-2-yl)piperidin-1-yl)methyl)-4-(cyclobutylmethyl)-4H-1,2,4-triazol-3-yl)but-2-enoic acid] | 38 nM
19 | COCCn1c(CCC(=O)O)cnc1CN1CCC(c2cccc3c2OC(C)(c2ccc(Cl)cc2F)O3)CC1 (centres unmarked) [Compound 237, 3-(2-((4-(2-(4-chloro-2-fluorophenyl)-2-methylbenzo[d][1,3]dioxol-4-yl)piperidin-1-yl)methyl)-1-(2-methoxyethyl)-1H-imidazol-5-yl)propanoic acid] | 0.29 nM
20 | CC1(c2ccc(Cl)cc2F)Oc2cccc(C3CCN(Cc4ncc(CCC(=O)O)n4CCOC(F)F)CC3)c2O1 (centres unmarked) [Compound 238, 3-(2-((4-(2-(4-chloro-2-fluorophenyl)-2-methylbenzo[d][1,3]dioxol-4-yl)piperidin-1-yl)methyl)-1-(2-(difluoromethoxy)ethyl)-1H-imidazol-5-yl)propanoic acid] | 0.43 nM
21 | CC1(c2ccc(Cl)cc2F)Oc2cccc(C3CCN(Cc4ncc(CCC(=O)O)n4C[C@@H]4CCO4)CC3)c2O1 (stereo partly drawn) [Compound 239, 3-(2-((4-(2-(4-chloro-2-fluorophenyl)-2-methylbenzo[d][1,3]dioxol-4-yl)piperidin-1-yl)methyl)-1-(((S)-oxetan-2-yl)methyl)-1H-imidazol-5-yl)propanoic acid] | 0.45 nM
22 | CC1(c2ccc(Cl)cc2F)Oc2cccc(C3CCN(Cc4ncc(CCC(=O)O)n4CC4CCS4(=O)=O)CC3)c2O1 (centres unmarked) [Compound 240, 3-(2-((4-(2-(4-chloro-2-fluorophenyl)-2-methylbenzo[d][1,3]dioxol-4-yl)piperidin-1-yl)methyl)-1-((1,1-dioxidothietan-2-yl)methyl)-1H-imidazol-5-yl)propanoic acid] | 0.38 nM
23 | Cc1ncoc1Cn1c(CCC(=O)O)cnc1CN1CCC(c2cccc3c2OC(C)(c2ccc(Cl)cc2F)O3)CC1 (centres unmarked) [Compound 241, 3-(2-((4-(2-(4-chloro-2-fluorophenyl)-2-methylbenzo[d][1,3]dioxol-4-yl)piperidin-1-yl)methyl)-1-((4-methyloxazol-5-yl)methyl)-1H-imidazol-5-yl)propanoic acid] | 0.21 nM
24 | CC1(c2ccc(Cl)cc2F)Oc2cccc(C3CCN(Cc4ncc(CCC(=O)O)n4Cc4ccccc4)CC3)c2O1 (centres unmarked) [Compound 242, 3-(1-benzyl-2-((4-(2-(4-chloro-2-fluorophenyl)-2-methylbenzo[d][1,3]dioxol-4-yl)piperidin-1-yl)methyl)-1H-imidazol-5-yl)propanoic acid] | 0.63 nM
25 | COc1cccc(Cn2c(CCC(=O)O)cnc2CN2CCC(c3cccc4c3OC(C)(c3ccc(Cl)cc3F)O4)CC2)c1 (centres unmarked) [Compound 243, 3-(2-((4-(2-(4-chloro-2-fluorophenyl)-2-methylbenzo[d][1,3]dioxol-4-yl)piperidin-1-yl)methyl)-1-(3-methoxybenzyl)-1H-imidazol-5-yl)propanoic acid] | 0.87 nM
26 | CCn1cncc1Cn1c(CCC(=O)O)cnc1CN1CCC(c2cccc(OCc3ccc(Cl)cc3F)n2)CC1 [Compound 244, 3-(2-((4-(6-((4-chloro-2-fluorobenzyl)oxy)pyridin-2-yl)piperidin-1-yl)methyl)-1-((1-ethyl-1H-imidazol-5-yl)methyl)-1H-imidazol-5-yl)propanoic acid] | 0.023 nM
